Measurements from US8435986B2, “Bicyclic traizole derivatives for treating of tumors” (Merck Patent Gesellschaft mit beschrankter Haftung, priority 2008, dated 2013).
pIC50: −log10 of the molar value. Structures can show the parent of a compound that is named as a salt.

Tests used:
Met kinase [1] = biological target: T1, Met kinase (Homo sapiens, UniProt P08581); test: Met kinase inhibition, biochemical assay (flashplate method); parameters: 6His (N); purchased Upstate 14-526; host or cells: Sf21 insect cells (S. frugiperda), baculovirus; settings: read-out: Biochemical assay IC50 (enzyme)
Description: Measurement of Met Kinase Activity
According to the manufacturer's data (Met, active, Upstate, catalogue No. 14-526), Met kinase is expressed for the purposes of protein production in insect cells (Sf21; S. frugiperda) and subsequent affinity-chromatographic purification as “N-terminal 6His-tagged” recombinant human protein in a baculovirus expression vector.
Flashplate Method (Met Kinase)
The test plates used are 96-well Flashplate® microtitre plates from Perkin Elmer (Cat. No. SMP200). The components of the kinase reaction described below are pipetted into the assay plate. The Met kinase and the substrate poly Ala-Glu-Lys-Tyr, (pAGLT, 6:2:5:1), are incubated for 3 hrs at room temperature with radioactively labelled ^33P-ATP in the presence and absence of test substances in a total volume of 100 μl. The reaction is terminated using 150 μl of a 60 mM EDTA solution. After incubation for a further 30 min at room temperature, the supernatants are filtered off with suction, and the wells are washed three times with 200 μl of 0.9% NaCl solution each time. The measurement of the bound radioactivity is carried out by means of a scintillation measuring instrument (Topcount NXT, Perkin-Elmer).
The full value used is the inhibitor-free kinase reaction. This should be approximately in the range 6000-9000 cpm. The pharmacological zero value used is staurosporin in a final concentration of 0.1 mM. The inhibitory values (IC50) are determined using the RS1_MTS program.
Kinase reaction conditions per well:
10 μl of substance to be tested in assay buffer with 10% of DMSO
10 μl of ATP (final concentration 1 μM cold, 0.35 μCi of ^33P-ATP)
50 μl of Met kinase/substrate mixture in assay buffer; • (10 ng of enzyme/well, 50 ng of pAGLT/well) • Solutions used: • Assay buffer: • 50 mM HEPES • 3 mM magnesium chloride • 3 μM sodium orthovanadate • 3 mM manganese(II) chloride • 1 mM dithiothreitol (DTT) • pH=7.5 (to be set using sodium hydroxide) • Stop solution: • 60 mM Titriplex III (EDTA) • ^33P-ATP: Perkin-Elmer; • Met kinase: Upstate, Cat. No. 14-526, Stock 1 μg/10 μl; spec. activity 954 U/mg; • Poly-Ala-Glu-Lys-Tyr, 6:2:5:1: Sigma Cat. No. P1152 In-Vivo Tests
Target sequence in this assay (P08581 974-1390 limits assumed): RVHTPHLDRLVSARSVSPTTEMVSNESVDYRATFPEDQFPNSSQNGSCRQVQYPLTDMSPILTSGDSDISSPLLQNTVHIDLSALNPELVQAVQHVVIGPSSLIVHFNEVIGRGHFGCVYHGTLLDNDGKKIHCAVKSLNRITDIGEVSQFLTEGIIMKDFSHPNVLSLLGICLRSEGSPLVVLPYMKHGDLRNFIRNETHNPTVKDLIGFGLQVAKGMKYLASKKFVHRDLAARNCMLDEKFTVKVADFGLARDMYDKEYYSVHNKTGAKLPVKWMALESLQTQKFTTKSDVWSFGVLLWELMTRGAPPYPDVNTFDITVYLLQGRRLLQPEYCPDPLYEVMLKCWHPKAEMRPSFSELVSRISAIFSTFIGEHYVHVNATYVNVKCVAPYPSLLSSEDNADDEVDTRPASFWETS

Met kinase [2] = biological target: T1, Met kinase; test: Met kinase inhibition, cellular assay; format: cell-based; settings: read-out: Cellular assay IC50 (cell)
Target sequence in this assay (P08581 25-1390): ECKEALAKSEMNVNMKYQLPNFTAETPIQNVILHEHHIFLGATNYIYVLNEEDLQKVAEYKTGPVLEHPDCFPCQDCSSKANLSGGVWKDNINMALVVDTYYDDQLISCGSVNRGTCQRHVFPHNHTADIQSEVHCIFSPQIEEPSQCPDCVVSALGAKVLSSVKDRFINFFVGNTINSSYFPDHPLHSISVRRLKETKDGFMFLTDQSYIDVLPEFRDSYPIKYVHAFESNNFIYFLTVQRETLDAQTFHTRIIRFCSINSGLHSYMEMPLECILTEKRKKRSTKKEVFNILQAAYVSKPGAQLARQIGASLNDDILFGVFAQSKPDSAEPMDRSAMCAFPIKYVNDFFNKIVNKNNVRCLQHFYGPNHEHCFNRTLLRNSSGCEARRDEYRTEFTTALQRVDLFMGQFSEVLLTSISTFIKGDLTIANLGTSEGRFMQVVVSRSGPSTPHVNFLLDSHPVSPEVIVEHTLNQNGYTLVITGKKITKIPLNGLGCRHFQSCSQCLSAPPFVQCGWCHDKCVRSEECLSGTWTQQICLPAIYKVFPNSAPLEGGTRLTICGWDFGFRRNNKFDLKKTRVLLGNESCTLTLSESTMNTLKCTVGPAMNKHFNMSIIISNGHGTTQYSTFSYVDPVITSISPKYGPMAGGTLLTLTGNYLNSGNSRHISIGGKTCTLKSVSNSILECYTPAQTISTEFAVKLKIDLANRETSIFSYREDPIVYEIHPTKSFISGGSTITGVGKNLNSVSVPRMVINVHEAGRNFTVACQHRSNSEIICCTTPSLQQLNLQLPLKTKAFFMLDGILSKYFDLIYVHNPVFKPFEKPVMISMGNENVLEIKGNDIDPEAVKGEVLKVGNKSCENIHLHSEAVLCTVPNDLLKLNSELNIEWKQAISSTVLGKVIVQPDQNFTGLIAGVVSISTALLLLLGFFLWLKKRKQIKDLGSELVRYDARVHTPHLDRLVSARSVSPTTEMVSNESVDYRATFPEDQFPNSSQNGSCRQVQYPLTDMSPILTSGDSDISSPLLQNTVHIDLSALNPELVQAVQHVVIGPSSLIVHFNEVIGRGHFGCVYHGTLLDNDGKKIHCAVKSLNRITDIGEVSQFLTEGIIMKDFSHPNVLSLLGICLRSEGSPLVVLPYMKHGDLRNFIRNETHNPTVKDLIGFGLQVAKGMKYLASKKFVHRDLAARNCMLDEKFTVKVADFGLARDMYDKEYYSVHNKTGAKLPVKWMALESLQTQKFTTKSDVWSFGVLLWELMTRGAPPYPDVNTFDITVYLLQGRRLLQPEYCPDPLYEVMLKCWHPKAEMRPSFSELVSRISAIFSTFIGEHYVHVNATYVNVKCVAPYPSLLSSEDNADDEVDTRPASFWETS

| Structure (SMILES) | pIC50 (Met kinase [1]) | pIC50 (Met kinase [2]) |
| --- | --- | --- |
| Cn1cc(-c2cnc3nnn(Cc4cccc(-c5ncc(-c6cnn(CCN7CCCC7)c6)cn5)c4)c3n2)cn1 [Compound A24, 6-(1-methyl-1H-pyrazol-4-yl)-1-(3-{5-[1-(2-pyrrolidin-1-yl-ethyl)-1H-pyrazol-4-yl]pyrimidin-2-yl}benzyl)-1H-1,2,3-triazolo[4,5-b]-pyrazine hydrochloride] | 7.00 to 9.00 | 7.00 to 9.00 |
| Cn1cc(-c2cnc3nnn(Cc4cccc(-c5ncc(OC6CCNCC6)cn5)c4)c3n2)cn1 [Compound A6] | 7.00 to 9.00 | 7.00 to 9.00 |
| Fc1ccc2nnn(Cc3cccc(-c4ncc(OCCN5CCOCC5)cn4)c3)c2c1F [Compound A46] | 7.00 to 9.00 | 7.00 to 9.00 |
| Clc1ccc2nnn(Cc3cccc(-c4ncc(OCCN5CCOCC5)cn4)c3)c2n1 [Compound A48, 5-chloro-3-{3-[5-(2-morpholin-4-ylethoxy)pyrimidin-2-yl]-benzyl}-3H-1,2,3-triazolo[4,5-b]pyridine] | 7.00 to 9.00 | 5.00 to 7.00 |
| c1cc(Cn2nnc3ccccc32)cc(-c2ncc(OCCN3CCOCC3)cn2)c1 [Compound A3, 1-{3-[5-(2-morpholin-4-ylethoxy)pyrimidin-2-yl]benzyl}-1H-benzotriazole] | 7.00 to 9.00 | 5.00 to 7.00 |
| Cn1cc(-c2cnc3nnn(Cc4cccc(-c5ncc(OCCN6CCOCC6)cn5)c4)c3n2)cn1 [Compound A2, 6-(1-methyl-1H-pyrazol-4-yl)-1-{3-[5-(2-morpholin-4-ylethoxy)-pyrimidin-2-yl]benzyl}-1H-1,2,3-triazolo[4,5-b]pyrazine] | 7.00 to 9.00 | 7.00 to 9.00 |
| Brc1cnc2nnn(Cc3cccc(-c4ncc(OCCN5CCOCC5)cn4)c3)c2n1 [Compound A1, 6-bromo-1-{3-[5-(2-morpholin-4-ylethoxy)pyrimidin-2-yl]benzyl}-1H-1,2,3-triazolo[4,5-b]-pyrazine] | – | 7.00 to 9.00 |
| N#Cc1cccc(-c2cnc3nnn(Cc4cccc(-c5ncc(OC6CCNCC6)cn5)c4)c3n2)c1 [Compound A27] | 7.00 to 9.00 | 7.00 to 9.00 |
| N#Cc1cccc(-c2cnc3nnn(Cc4cccc(-c5ncc(OCC6CCNCC6)cn5)c4)c3n2)c1 [Compound A30] | 7.00 to 9.00 | 7.00 to 9.00 |
| Cn1cc(-c2cnc3nnn(Cc4cccc(-c5ncc(OCC6CCNCC6)cn5)c4)c3n2)cn1 [Compound A9] | 7.00 to 9.00 | 7.00 to 9.00 |

Results, then the compound that gave them:

| pIC50 (Met kinase [1]) | pIC50 (Met kinase [2]) | Structure (SMILES) |
| --- | --- | --- |
| 7.00 to 9.00 | 7.00 to 9.00 | N#Cc1cccc(-c2cnc3nnn(Cc4cccc(-c5ncc(-c6cnn(CCN7CCCC7)c6)cn5)c4)c3n2)c1 [Compound B21] |
| 7.00 to 9.00 | 7.00 to 9.00 | CN1CCN(CCOc2cnc(-c3cccc(Cn4nnc5ncc(-c6cnn(C)c6)nc54)c3)nc2)CC1=O [Compound B19] |
| 7.00 to 9.00 | 5.00 to 7.00 | Brc1cnc(-c2cccc(Cn3nnc4ncc(Br)nc43)c2)nc1 [Compound B1, 6-bromo-1-[3-(5-bromopyrimidin-2-yl)benzyl]-1H-1,2,3-triazolo[4,5-b]pyrazine] |
| 7.00 to 9.00 | 5.00 to 7.00 | O=[N+]([O-])c1ccc(Br)cc1NCc1cccc(-c2ncc(OCCN3CCOCC3)cn2)c1 [Compound B36, (5-bromo-2-nitrophenyl)-{3-[5-(2-morpholin-4-ylethoxy)-pyrimidin-2-yl]benzyl}amine] |
| 5.00 to 7.00 | < 5.00 | Clc1ccc2c(c1)nnn2Cc1cccc(-c2ncc(OCCN3CCOCC3)cn2)c1 [Compound B35, 5-Chloro-1-{3-[5-(2-morpholin-4-ylethoxy)pyrimidin-2-yl]benzyl}-1H-benzotriazole] |
| 7.00 to 9.00 | 7.00 to 9.00 | CN(C)CCOc1cnc(-c2cccc(Cn3nnc4ncc(-c5cnn(C)c5)nc43)c2)nc1 [Compound B14, dimethyl-[2(2-{3-[6-(1-methyl-1H-pyrazol-4-yl)-1,2,3-triazolo[4,5-b]pyrazin-1-ylmethyl]phenyl}pyrimidin-5-yloxy)ethyl]amine hydrochloride] |
| 7.00 to 9.00 | 7.00 to 9.00 | COc1ccc2nnn(Cc3cccc(-c4ncc(OCCCN(C)C)cn4)c3)c2n1 [Compound B37] |
| 7.00 to 9.00 | 7.00 to 9.00 | COCCOc1cnc(-c2cccc(Cn3nnc4ncc(-c5cnn(C)c5)nc43)c2)nc1 [Compound B16] |
| 7.00 to 9.00 | 7.00 to 9.00 | Fc1cc(F)cc(Oc2cnc3nnn(Cc4cccc(-c5ncc(Br)cn5)c4)c3n2)c1 [Compound B7, 1-[3-(5-bromopyrimidin-2-yl)benzyl]-6-(3,5-difluorophenoxy)-1H-1,2,3-triazolo[4,5-b]pyrazine] |
| 7.00 to 9.00 | 7.00 to 9.00 | Cn1cc(-c2cnc3nnn(Cc4cccc(-c5ncc(OCCCO)cn5)c4)c3n2)cn1 [Compound B15] |
| 7.00 to 9.00 | 7.00 to 9.00 | COCCn1cc(-c2cnc3nnn(Cc4cccc(-c5ncc(OCCN6CCOCC6)cn5)c4)c3n2)cn1 [Compound B33] |
| 7.00 to 9.00 | 7.00 to 9.00 | CN1CCN(CCOc2cnc(-c3cccc(Cn4nnc5ncc(-c6cnn(C)c6)nc54)c3)nc2)CC1 [Compound B17] |
| 7.00 to 9.00 | 7.00 to 9.00 | N#Cc1cccc(Oc2cnc3nnn(Cc4cccc(-c5ncc(Br)cn5)c4)c3n2)c1 [Compound B6, 3-{3-[3-(5-bromopyrimidin-2-yl)benzyl]-3H-1,2,3-triazolo[4,5-b]pyrazin-5-yloxy}benzonitrile] |
| 7.00 to 9.00 | 7.00 to 9.00 | Fc1cc(F)cc(-c2cnc3nnn(Cc4cccc(-c5ncc(OCC6CCNCC6)cn5)c4)c3n2)c1 [Compound B24] |
| 7.00 to 9.00 | 7.00 to 9.00 | Cn1cc(Oc2cnc3nnn(Cc4cccc(-c5ncc(Br)cn5)c4)c3n2)cn1 [Compound B5, 1-[3-(5-bromopyrimidin-2-yl)benzyl]-6-(1-methyl-1H-pyrazol-4-yloxy)-1H-1,2,3-triazolo[4,5-b]pyrazine] |
| 7.00 to 9.00 | 7.00 to 9.00 | N#Cc1cccc(-c2cnc3nnn(Cc4cccc(-c5ncc(OCCN6CCNCC6)cn5)c4)c3n2)c1 [Compound B22] |
| 7.00 to 9.00 | 7.00 to 9.00 | Oc1cnc(-c2cccc(Cn3nnc4ncc(-c5cc(F)cc(F)c5)nc43)c2)nc1 [Compound B10, 2-{3-[6-(3,5-difluorophenyl)-1,2,3-triazolo[4,5-b]pyrazin-1-ylmethyl]phenyl}-pyrimidin-5-ol] |
| 7.00 to 9.00 | 7.00 to 9.00 | Cn1cc(-c2cnc3nnn(Cc4cccc(-c5ncc(OCCCN6CCOCC6)cn5)c4)c3n2)cn1 [Compound B18] |
| 7.00 to 9.00 | 7.00 to 9.00 | Fc1cc(F)cc(-c2cnc3nnn(Cc4cccc(-c5ncc(OCCN6CCNCC6)cn5)c4)c3n2)c1 [Compound B23] |
| 7.00 to 9.00 | 7.00 to 9.00 | Cn1cc(-c2cnc3nnn(Cc4cccc(-c5ncc(OCC6CNCCO6)cn5)c4)c3n2)cn1 (stereo not shown) [Compound B20] |
| 7.00 to 9.00 | 7.00 to 9.00 | OCCn1cc(-c2cnc3nnn(Cc4cccc(-c5ncc(OCCN6CCOCC6)cn5)c4)c3n2)cn1 [Compound B34] |
